“And” between values parts separate entries of the source, which are not always exact repeats. Identical values can stand only once. Like-named read-outs stand apart in the source and are kept apart here.
Experiments:
HIV-1 protease [1] = biological target: T1, HIV-1 protease (Human immunodeficiency virus type 1 group M subtype B, UniProt P04585); test: biochemical
Procedure: The HIV protease screening assay is based on fluorescently labeled substrate which can be resolved from nonlabeled cleavage product using special beads coated with streptavidin. The substrate is biotinylated at the amino terminal arginine and fluorescently labeled with fluorescein isothiocynate (FITC) at the carboxyl terminal lysine. […] Substrate ([…] of 0.2 μM), sample (10 μl of desired concentraion), and enzyme (10 μl of 0.1 μM) are added to a 96 well pandex plate. The assay is run in 0.1 M sodium acetate buffer at pH 5.5 in the presence of 1.0 M sodium chloride and 0.05% NP-40 with incubated in the dark for one hour at room temperature. Strepavidin coated polystyrene beads {40 μl of 0.1% (w/v)} are added and the plate is incubated in the dark for an additional half hour. The labeled cleavage product is separated from the unreacted substrate via filtration and is read on the Idexx screen machine. The data are analyzed by appropriate computer algorithms to ascertain percent inhibition values.
Determination of Ki values utilizes the same materials and equipment employed for percent inhibition studies. Two-fold serial dilutions are made for a given inhibitor from 2, 3 or 4 starting concentrations with a total of 24, 36 or 48 individual inhibitor concentrations. These dilutions are performed utilizing the BioMek robotics system. The assay consists of 10 μL of 40 nM HIV-1 protease, 10 μL of the various inhibitor concentrations, and 20 μL of 200 μM substrate (40 μL total). The reaction is allowed to proceed for 90 min at room temperature, terminated with 40 μL of avidin beads and processed (supra vide). An inhibitor with a known K; is run in parallel to verify the validity of the assay. The data is processed utilizing a computer program employing a nonlinear least square analysis of the data to generate the Ki values.

HIV-1 protease [2] = biological target: T1, HIV-1 protease; test: biochemical; conditions: read-out: Protease % Inhib
Procedure: The HIV protease screening assay is based on fluorescently labeled substrate which can be resolved from nonlabeled cleavage product using special beads coated with streptavidin. The substrate is biotinylated at the amino terminal arginine and fluorescently labeled with fluorescein isothiocynate (FITC) at the carboxyl terminal lysine. This assay has been employed to detect novel, nonpeptidic inhibitors of HIV-1 protease. Substrate (20 μM of 0.2 μM), sample (10 μl of desired concentraion), and enzyme (10 μl of 0.1 μM) are added to a 96 well pandex plate. The assay is run in 0.1 M sodium acetate buffer at pH 5.5 in the presence of 1.0 M sodium chloride and 0.05% NP-40 with incubated in the dark for one hour at room temperature. Strepavidin coated polystyrene beads {40 μl of 0.1% (w/v)} are added and the plate is incubated in the dark for an additional half hour. The labeled cleavage product is separated from the unreacted substrate via filtration and is read on the Idexx screen machine. The data are analyzed by appropriate computer algorithms to ascertain percent inhibition values.

[3] = Table I, read-out: HIV Protease FITC Assay Ki
[4] = read-out: HIV Protease FITC Assay Ki

CC[C@@H](Cc1ccccc1)c1cc(O)c(C(c2cccc(NS(=O)(=O)c3cn(C)cn3)c2)C2CC2)c(=O)o1 (single isomer, unassigned) [Example 139, N-(3-(R or S)-{Cyclopropyl-[6-(1-(S)-ethylphenethyl)-4-hydroxy-2-oxo-2H-pyran-3-yl]-methyl}-phenyl)-1-methyl-1H-imidazole-4-sulfonamide]
Ki (HIV-1 protease [1]; [3]): 1.89 nM
inhibition at 0.123 µM (HIV-1 protease [2]; Table I, Dose 0.123 μM): 98.3%
inhibition at 0.37 µM (HIV-1 protease [2]; Table I, Dose 0.370 μM): 101%
inhibition at 1.1 µM (HIV-1 protease [2]; Table I, Dose 1.100 μM): 105%
inhibition at 3.3 µM (HIV-1 protease [2]; Table I, Dose 3.300 μM): 99.3%
inhibition at 10 µM (HIV-1 protease [2]; Table I, Dose 10.000 μM): 99.3%
inhibition at 30 µM (HIV-1 protease [2]; Table I, Dose 30.000 μM): 103%

CN(c1cccc(C(c2c(O)c3c(oc2=O)CCCCCC3)C2CC2)c1)S(=O)(=O)c1cn(C)cn1 (centres unmarked) [Example 195, N-methyl-N-[3-[cyclopropyl(5,6,7,8,9,10-hexahydro-4-hydroxy-2-oxo-2H-cycloocta[b]pyran-3-yl)methyl]phenyl]-1H-Imidazole-1-methyl-sulfonamide]
Ki (HIV-1 protease [1]; [3]): 3.7 nM
inhibition at 0.123 µM (HIV-1 protease [2]; Table I, Dose 0.123 μM): 60.9%
inhibition at 0.37 µM (HIV-1 protease [2]; Table I, Dose 0.370 μM): 85.1%
inhibition at 1.1 µM (HIV-1 protease [2]; Table I, Dose 1.100 μM): 90.8%
inhibition at 3.3 µM (HIV-1 protease [2]; Table I, Dose 3.300 μM): 90.8%
inhibition at 10 µM (HIV-1 protease [2]; Table I, Dose 10.000 μM): 93.1%
inhibition at 30 µM (HIV-1 protease [2]; Table I, Dose 30.000 μM): 92.7%

CCC(C1=C(O)CC(CCC2CC2)(CCC2CC2)OC1=O)c1cccc(NS(=O)(=O)c2ccc(C#N)cn2)c1 (centres unmarked) [Example 247, N-[3-(1-[6,6-Bis-(2-cyclopropyl-ethyl)-5,6-dihydro-4-hydroxy-2-oxo-2H-pyran-3-yl]propyl)phenyl]-5-cyano-2-pyridinesulfonamide]
Ki (HIV-1 protease [1]; [3]): 1.2 nM

O=c1oc(C(CC2CC2)CC2CC2)cc(O)c1C(c1cccc(NS(=O)(=O)c2ccc3ccccc3n2)c1)C1CC1 (centres unmarked) [Example 103, N-(3-{Cyclopropyl-[6-(2-cyclopropyl-1-cyclopropylmethyl-ethyl)-4-hydroxy-2-oxo-2H-pyran-3-yl]-methyl}-phenyl)-2-quinolinesulfonamide]
Ki (HIV-1 protease [1]; [3]): 1.72 nM
inhibition at 0.123 µM (HIV-1 protease [2]; Table I, Dose 0.123 μM): 65.5%
inhibition at 0.37 µM (HIV-1 protease [2]; Table I, Dose 0.370 μM): 82.6%
inhibition at 1.1 µM (HIV-1 protease [2]; Table I, Dose 1.100 μM): 96.9%
inhibition at 3.3 µM (HIV-1 protease [2]; Table I, Dose 3.300 μM): 100%
inhibition at 10 µM (HIV-1 protease [2]; Table I, Dose 10.000 μM): 105%
inhibition at 30 µM (HIV-1 protease [2]; Table I, Dose 30.000 μM): 96%

O=c1oc(C(CC2CC2)CC2CC2)cc(O)c1C(c1cccc(NS(=O)(=O)c2ccc(F)cc2)c1)C1CC1 (centres unmarked) [Example 94, N-(3-{Cyclopropyl-[6-(2-cyclopropyl-1-cyclopropylmethyl-ethyl)-4-hydroxy-2-oxo-2H-pyran-3-yl]-methyl}-phenyl)-4-fluoro-benzenesulfonamide]
Ki (HIV-1 protease [1]; [4]): 16.4 nM
inhibition at 0.123 µM (HIV-1 protease [2]): 75.8%
inhibition at 0.37 µM (HIV-1 protease [2]): 107%
inhibition at 1.1 µM (HIV-1 protease [2]): 107%
inhibition at 3.3 µM (HIV-1 protease [2]): 105%
inhibition at 10 µM (HIV-1 protease [2]): 109%
inhibition at 30 µM (HIV-1 protease [2]): 111%

COCCOCCOCCOc1ccc2c(O)c(C(c3cccc(NS(=O)(=O)c4cn(C)cn4)c3)C3CC3)c(=O)oc2c1 (centres unmarked) [Example 151, N-(3-{Cyclopropyl-[7-(2-(2-(2-methoxyethoxy)-ethoxy)ethoxy)-4-hydroxycoumarin-3-yl]-methyl}-phenyl)-1-methyl-1H-imidazole-4-sulfonamide]
Ki (HIV-1 protease [1]; HIV Protease FITC Assay Ki): 0.36 nM
inhibition at 0.123 µM (HIV-1 protease [2]): 111%
inhibition at 0.37 µM (HIV-1 protease [2]): 115%
inhibition at 1.1 µM (HIV-1 protease [2]): 118%
inhibition at 3.3 µM (HIV-1 protease [2]): 119%
inhibition at 10 µM (HIV-1 protease [2]): 116%
inhibition at 30 µM (HIV-1 protease [2]): 115%

CCC(C1=C(O)CC(CCC2CC2)(CCC2CC2)OC1=O)c1cccc(NS(=O)(=O)c2cn(C)cn2)c1 (centres unmarked) [Example 246, N-[3-(1-[6,6-Bis-(2-cyclopropyl-ethyl)-5,6-dihydro-4-hydroxy-2-oxo-2H-pyran-3-yl]propyl)phenyl]-1-methyl-1H-imidazole-4-sulfonamide]
Ki (HIV-1 protease [1]; [3]): 1.7 nM

Cn1cnc(S(=O)(=O)Nc2cccc(C(c3c(O)cc(C(CC4CC4)CC4CC4)oc3=O)C3CC3)c2)c1 (centres unmarked) [98 Second Compound]
Ki (HIV-1 protease [1]; [4]): 0.84 nM and 0.8 nM

CCCC1(CCc2ccc(F)cc2)CC(O)=C(C(CC)c2cccc(NS(=O)(=O)c3cn(C)cn3)c2)C(=O)O1 (centres unmarked) [Example 254, N-[3-{1-(4-Hydroxy-5,6-dihydro-2-oxo-6-(2-(4-fluorophenyl)ethyl)-6-propyl-2H-pyran-3-yl)propyl}phenyl]-1-methyl-1H-imidazole-4-sulfonamide]
Ki (HIV-1 protease [1]; [4]): 3 nM

CCC(C1=C(O)CC(CC)(c2cccc(NS(=O)(=O)c3ccc(C#N)cn3)c2)OC1=O)c1cccc(NS(=O)(=O)c2ccc(C#N)cn2)c1 (centres unmarked) [Example 249, 5-Cyano-N-(3-[1-(6-[3-([(5-cyano-2-pyridinyl)sulfonyl]amino)phenyl]-6-ethyl-5,6-dihydro-4-hydroxy-2-oxo-2H-pyran-3-yl)propyl]phenyl)-2-pyridinesulfonamide]
Ki (HIV-1 protease [1]; [4]): 0.75 nM

Cn1cnc(S(=O)(=O)Nc2cccc(C(c3c(O)cc(C(CC4CC4)CC4CC4)oc3=O)C3CC3)c2)c1 (centres unmarked) [98 First Compound]
Ki (HIV-1 protease [1]; [4]): 0.74 nM and 0.8 nM

CCCC1(CCC)CC(O)=C(C(c2cccc(NS(=O)(=O)c3ccc(C#N)cn3)c2)C(C)(C)C)C(=O)O1 (centres unmarked) [Example 260, N-[3-{1-(4-Hydroxy-5,6-dihydro-2-oxo-6,6-dipropyl-2H-pyran-3-yl)-2,2-dimethylpropyl}phenyl]-5-cyanopyridine-2-sulfonamide]
Ki (HIV-1 protease [1]; [3]): 2 nM

CCCC1(CCc2ccc(F)cc2)CC(O)=C(C(CC)c2cccc(NS(=O)(=O)c3ccc(C#N)cn3)c2)C(=O)O1 (centres unmarked) [Example 255, N-[3-{1-(4-Hydroxy-5,6-dihydro-2-oxo-6-(2-(4-fluorophenyl)ethyl)-6-propyl-2H-pyran-3-yl)propyl}phenyl]-5-cyanopyridine-2-sulfonamide]
Ki (HIV-1 protease [1]; [3]): 1.6 nM

CCC(C1=C(O)C2CCCCC2OC1=O)c1cccc(NS(=O)(=O)c2ccc(C#N)cc2)c1 (centres unmarked) [Example 371]
Ki (HIV-1 protease [1]; read-out: FITC KI): 15.4 nM

CCC(C1=C(O)CC(CC)(c2cccc(NS(=O)(=O)c3cn(C)cn3)c2)OC1=O)c1cccc(NS(=O)(=O)c2cn(C)cn2)c1 (centres unmarked) [Example 248, N-(3-[1-(6-Ethyl-5,6-dihydro-4-hydroxy-6-[3-([(1-methyl-1H-imidazol-4-yl)sulfonyl]amino)phenyl]-2-2H-pyran-3-yl)propyl]phenyl)-1-methyl-1H-imidazole-4-sulfonamide]
Ki (HIV-1 protease [1]; [3]): 4.7 nM

CC(C)(C)C(C1=C(O)CC(CCc2ccc(F)cc2)(CCc2ccc(F)cc2)OC1=O)c1cccc(NS(=O)(=O)c2ccc(C#N)cn2)c1 (centres unmarked) [Example 257, N-[3-{1-(4-Hydroxy-5,6-dihydro-2-oxo-6,6-bis(2-(4-fluorophenyl)ethyl)-2H-pyran-3-yl)-2,2-dimethylpropyl}phenyl]-5-cyanopyridine-2-sulfonamide]
Ki (HIV-1 protease [1]; [3]): 9 nM

CCCC1(CCC)CC(O)=C(C(c2cccc(NS(=O)(=O)c3cn(C)cn3)c2)C(C)(C)C)C(=O)O1 (centres unmarked) [Example 261, N-[3-{1-(4-Hydroxy-5,6-dihydro-2-oxo-6,6-dipropyl-2H-pyran-3-yl)-2,2-dimethylpropyl}phenyl]-1-methyl-1H-imidazole-4-sulfonamide]
Ki (HIV-1 protease [1]; [3]): 0.87 nM

CCC(C1=C(O)CC(CCc2ccc(F)cc2)(CCc2ccc(F)cc2)OC1=O)c1cccc(NS(=O)(=O)c2ccc(C#N)cn2)c1 (centres unmarked) [Example 259, N-[3-{1-(4-Hydroxy-5,6-dihydro-2-oxo-6,6-bis(2-(4-fluorophenyl)ethyl)-2H-pyran-3-yl)propyl}phenyl]-5-cyanopyridine-2-sulfonamide]
Ki (HIV-1 protease [1]; [3]): 2.2 nM

CCC(C1=C(O)CC(CCc2ccc(F)cc2)(CCc2ccc(F)cc2)OC1=O)c1cccc(NS(=O)(=O)c2cn(C)cn2)c1 (centres unmarked) [Example 258, N-[3-{1-(4-Hydroxy-5,6-dihydro-2-oxo-6,6-bis(2-(4-fluorophenyl)ethyl)-2H-pyran-3-yl)propyl}phenyl]-1-methyl-1H-imidazole-4-sulfonamide]
Ki (HIV-1 protease [1]; [3]): 4.3 nM

Cn1cnc(S(=O)(=O)Nc2cccc(C(C3=C(O)CC(CCc4ccc(F)cc4)(CCc4ccc(F)cc4)OC3=O)C(C)(C)C)c2)c1 (centres unmarked) [Example 256, N-[3-{1-(4-Hydroxy-5,6-dihydro-2-oxo-6,6-bis(2-(4-fluorophenyl)ethyl)-2H-pyran-3-yl)-2,2-dimethylpropyl}phenyl]-1-methyl-1H-imidazole-4-sulfonamide]
Ki (HIV-1 protease [1]; [3]): 8.3 nM

From US6169181A, “Compounds useful to treat retroviral infections” (Pharmacia & Upjohn Company, priority 1998, dated 2001)
